This experiment deals with BT-549 breast. The experiment in a line: NCI tumour cell line growth inhibition, 48 h.

Molecules are shown by their SMILES.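 1) Cells in 96-well plates. 2) Compound, 48 h, 5 concentrations. 3) Linear interpolation between surrounding doses. 4) Unreached endpoint = highest concentration. TGI is the concentration that stops growth completely.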 Some results are limits rather than exact numbers.

In turn, `O=C(O)Cc1ccc(N2N=C(c3ccccc3)CC2=O)cc1` displayed a TGI of over 100 µM.
In the case of `CC(C)(C)OC(=O)C1=C(C(=O)OC(C)(C)C)SC2(S1)C(C(=O)OC(C)(C)C)=C(C(=O)OC(C)(C)C)Sc1c2ssc1=O` it was over 100 µM.

Source of the values: PubChem BioAssay (NCI).
